The source of these data is a melting point compilation (Tetko et al.; mined from patent text by program, amines drawn as free bases though some values may be those of a salt).

The compound `O=S(=O)(c1ccc(-c2ccc(C3COC(c4c(F)cccc4F)=N3)cc2)cc1)C(F)F` (stereo not given) came in with a melting point of 107 to 111 °C.
With `CC(C)=CCc1cc(C2CCc3ccc(O)cc3O2)ccc1O` (stereo not given) the figure was 116 to 117 °C.
For `Cc1ccc(S(=O)(=O)N[C@@H]2COC(C)(C)OC[C@H]2OS(=O)(=O)c2ccc(C)cc2)cc1` (relative stereo), the melting point lay in the range of 200 to 202 °C.
As for `Clc1ccc(OC2CCN(CCc3c[nH]c4ccccc34)CC2)cc1`, the melting point lay in the range of 132 to 133 °C.
`Cc1ncoc1-c1nc(-c2c(F)cccc2F)nn1C`: the melting point was 113 to 115 °C.
Consider `O=C1CCOc2ccc(/C=C/c3nc4cc(F)ccc4s3)cc21`, for which the melting point was in the range of 197 to 199 °C.
Compound `CC(C#N)=C1CCN(c2ccc(N3C[C@H](CNC(=O)CC#N)OC3=O)cc2F)CC1` showed a melting point of 194 to 196 °C.
For `O=C1NC(=O)C2(C(=O)N(Cc3ccc(Cl)c(Cl)c3)c3ccccc32)N1C(=O)c1ccccc1` (stereo not given), the melting point is 251 to 253 °C.
`O=C1N(c2ccc(Cl)cc2)c2ncccc2C1(Cc1ccccc1)Cc1ccncc1` (stereo not given) came in with a melting point of 182 to 185 °C.
With `COC(=O)CCC#Cc1cc(Cl)ccc1NS(=O)(=O)c1ccc2nc(NC(C)=O)sc2c1`, the melting point worked out at 85 °C.
`CC1OOC2(/C=C\c3ccc(C(F)(F)F)cc3C(F)(F)F)CC1CC(=O)C2C` (stereo not given): the melting point was 124 °C.
In the case of `O=c1c(N2CCNCC2)nccn1CCOc1cc(F)cc(F)c1`, the melting point lay in the range of 119 to 121 °C.
`CCC1(C)COP(=O)(Cc2ccc([N+](=O)[O-])cc2)OC1` (stereo not given) had a melting point of 184 to 185 °C.
`CC1=C(C(=O)OCCO)C(c2ccccc2OCc2ccccc2)C([N+](=O)[O-])=C(C)N1` (stereo not given): the melting point fell in the range of 183 to 185 °C.
In turn, `CCc1nc(N)nc(N)c1CCC(C)c1ccc(C(F)(F)F)cc1` (stereo not given) returned a melting point of 48 to 55 °C.
The compound `Clc1ncc(-c2ccsc2)cn1` yielded a melting point of 154 to 157 °C.
In turn, `Nc1nc(N)c(-c2cccc(Cl)c2Cl)c(C(F)(F)F)n1` came in with a melting point of 218 to 219 °C.
`CS(=O)(=O)c1cccnc1CC1C(=O)C2(COc3cc4c(cc32)OCCO4)c2ccccc21` (stereo not given) came in with a melting point of over 250 °C.
With `Cc1c(F)cc(C(=O)O)cc1F` the figure was 153 °C; with `NNC1=Nc2ccc(Cl)cc2C(c2ccccc2F)S(=O)(=O)CC1` (stereo not given), 159 °C; with `COc1ccc(CCOS(N)(=O)=O)cc1OC`, 106 to 108 °C.
With `CC(C)(C)c1cc(CC#Cc2ccc(C(=O)O)cc2)cc(C(C)(C)C)c1O` the figure was 198 to 199 °C; with `CCc1sc2ccc(C)cc2c1S(=O)(=O)Nc1onc(C)c1Br`, 176 to 178 °C.
`Cc1coc(C)c1C(=O)OC1CC(C)(C)N(CC#N)C(C)(C)C1` registered a melting point of 156 °C.
For the compound `CN1CCCC1=C1C(=O)N(c2ccccc2)c2cc(Cl)ccc21`, the melting point is 134 to 137 °C.
For the compound `COc1ccc2c(=O)[nH]c(-c3cc(C)c(OCCN4CCCC4)c(C)c3)nc2c1`, the melting point is 218 to 220 °C.
As to `CCc1nc2c(N)nc3ccccc3c2n1Cc1cc(-c2ccc(F)cc2)no1`, the melting point lay in the range of 232 to 233 °C.
In turn, `Cc1ccccc1C(=O)CCc1c(C(=O)N2CCCC2)cc2c(nc(C)n2C)c1O` gave a melting point of 216 to 217 °C.
In turn, `CC(C)(C)C(NC(=O)c1ccc(Cl)cc1)NC(=NC#N)NCc1ccncc1` (stereo not given) came in with a melting point of 189 to 191 °C.
Turning to `CN1CCN(CC2COCc3nc4c(N)nc5ccccc5c4n32)CC1` (stereo not given), the melting point was 187 to 190 °C.
As to `CCN1c2ncc(CCc3ccc(NS(C)(=O)=O)cc3)cc2C(=O)N(C)c2ccc(Cl)nc21`, the melting point was in the range of 199 to 204 °C.
In turn, `Cn1cncc1C(O)(c1ccc(Cl)cc1)c1cc2nnn3c(=O)cc(-c4cccc(Cl)c4)c(c1)c23` (stereo not given) yielded a melting point of 226 °C.
With `COc1ccc(C=C2C(=O)C3(C)CCC2C3(C)C)cc1OC` (stereo not given) the figure was 107 °C; with `COC(=O)N1CCC(Nc2ncc3ncnc(Nc4ccc(F)c(Cl)c4)c3n2)CC1`, 213 to 215 °C.
`Cc1ccc2nc(-c3ccc(C#N)cc3)c(CNC(=O)CC(C)C)n2c1`: the melting point fell in the range of 231 to 233 °C.
`CCOC(=O)N1CCC(c2cc3cc(OC)cc(Br)c3o2)CC1`: the melting point came to 85 °C.
In the case of `O=c1cc(-c2nnn[nH]2)oc2c(COc3ccc(OCc4ccc5ccccc5n4)cc3)cccc12` it was over 250 °C.
In turn, `CN(C(=O)CN(C(=O)CNC(=O)Nc1cccc(/C=N/O)c1)c1ccccc1)c1ccccc1` returned a melting point of 219 °C.
`CC(C)(N)CNCCCCCCNCC(C)(C)N`: the melting point was 25 to 35 °C.
Take `CC(C)(C)OC(=O)NC(NC(=O)OC(C)(C)C)Nc1ccc(CCc2csc(NC(=O)c3ccccc3)n2)cc1`: the melting point is 143 to 144 °C.
Compound `COC(=O)C1Oc2ccccc2Cc2ccc(OC)cc2O1` (stereo not given) registered a melting point of 93 to 95 °C.
On to `CCOP(=O)(/C=C/c1cn(CC)nc1OCc1ccc(OCc2nc(-c3ccco3)oc2C)c(OC)c1)OCC`, for which the melting point lay in the range of 82 to 84 °C.
The compound `COCCn1nc2c(N)nc3ccccc3c2c1CCCCNS(C)(=O)=O` had a melting point of 159 to 161 °C.
Consider `CCOC(=O)C(C)(C)CCCCCOc1ccc(-c2csc(NC(=O)NC3CCCCC3)n2)cc1`, for which the melting point was in the range of 106 to 108 °C.
Regarding `O=C(NO)c1cnc(N2CCN(S(=O)(=O)c3ccc(C(=O)Nc4ccc(Cl)c(-c5ccccn5)c4)cc3Cl)CC2)nc1`, the melting point came to 159 °C.
`COc1cc2c3c(c1)c(Cl)c(C(=O)N1CCc4ccccc41)c(=O)n3CCO2` came in with a melting point of 158 to 160 °C.
With `NS(=O)(=O)c1ccc(-c2c(-c3ccccc3)noc2COCC(F)(F)C(F)(F)C(F)(F)CO[N+](=O)[O-])cc1` the figure was 38 to 39 °C; with `COc1ccc(CC(SC)C(N)=O)cc1C(=O)NCc1ccc(C(F)(F)F)cc1` (stereo not given), 152 to 154 °C; with `O=[N+]([O-])C=C1NCCCN1c1ccc(Cl)nc1`, 202 °C.
With `CCN(C(=O)N1CCN(c2ccccc2OC)CC1)c1cc(C)c(C)nc1OC` the figure was 112 to 113 °C; with `COc1ccc(N2C(=O)c3ccc(Cl)cc3C2CC(=O)N2CCC3(CC2)OCCO3)cc1` (stereo not given), 156 to 157 °C.
Turning to `CCOC(=O)c1ccc2cc(Oc3cccc([N+](=O)[O-])c3)ccn2c1=O`, the melting point fell in the range of 161 to 163 °C.
In the case of `COc1cc(OC)c2c(=O)[nH]c(-c3ccc(OCCO)c(-c4ccc(S(C)=O)cc4)n3)nc2c1` (stereo not given) it was 281 to 282 °C; in that of `Cc1ccc(C(=O)Nc2ccccc2N2CCN(Cc3ccc[nH]3)CC2)c(-c2ccc(C(F)(F)F)cc2)c1`, 196 to 198 °C.
With `CCCCN1CCN(c2nsc3nc4ccccc4n23)CC1` the figure was 121 to 122 °C; with `O=C(O)c1ccc(Br)cc1COc1ccccc1`, 160 to 163 °C.
Regarding `COc1ccc(C2CCN(C(=O)/C=C/c3ccccc3)CC2)cc1OC1CCCC1`, the melting point lay within 93 to 95 °C.
With `O=[N+]([O-])c1cnc(Sc2nnc(O)n2C2CCCCC2)s1` the figure was 237 to 239 °C.
As to `CCOC(Cn1cncn1)(c1ccc(F)cc1F)C(F)(F)S(=O)(=O)CCO` (stereo not given), the melting point lay in the range of 150 to 153 °C.
`COc1ccc(Cn2nc(-n3cnn(Cc4ccc(F)cc4)c3=O)cc2C(=O)NCc2ccc(F)c(F)c2)cc1` showed a melting point of 156 to 158 °C.
For the compound `CN(C)CCNS(=O)(=O)c1cccc(NC(=O)c2cnn3c(C(F)(F)F)cc(-c4ccc(C(F)(F)F)cc4)nc23)c1`, the melting point stood at 224 °C.
With `O=c1c(Cc2ccncc2)c(-c2ccc(F)cc2)[nH]c2ccccc12`, the melting point was in the range of 144 to 146 °C.
With `Cc1ccc(Nc2ccccc2C(=O)O)c([N+](=O)[O-])c1`, the melting point lay in the range of 209 to 213 °C.
Compound `CCOC(=O)c1ccc(OC)c(OCc2nc(C)c(C)nc2C)c1` displayed a melting point of 130 °C.
In the case of `COc1ccc(CNc2c(C)c(C)c3c(c2C)C(c2ccccc2)C(C)(C)O3)cc1` (stereo not given) it was 113 to 115 °C; in that of `CON(Cc1nc2c(N)nc(C)c(C)c2n1CC(C)C)C(=O)C1CC1`, 135 to 137 °C; in that of `COc1cc(C=CC(CSc2ccccc2)=NO)ccc1O`, 90 to 100 °C.
With `CC(C)=CCC/C(C)=C/CSc1nc2cc(F)c(Cl)cc2[nH]1` the figure was 122 to 124 °C.
Take `CCOCCSC(F)(F)C(O)(Cn1cncn1)c1ccc(F)cc1F` (stereo not given): the melting point lay in the range of 61 to 63 °C.
Turning to `CCOC(=O)C1=CC(C)C2=c3c1cccc3=C1N=NC=C12` (stereo not given), the melting point is 107 to 109 °C.
On to `COc1ccc(/C=C/c2nc3c([nH]2)c(=O)n(C)c(=O)n3C)c(OC)c1OC`, for which the melting point was 265 to 266 °C.
`O=C1CCCC12CNc1ccc(Cl)cc12` (stereo not given): the melting point was in the range of 201 to 202 °C.
On to `Cc1ccc(OC2CCN(C(C=O)Nc3ccc4c(c3)OCC(=O)N4)CC2)cc1` (stereo not given), for which the melting point was 223 to 224 °C.
With `O=CNc1cc([N+](=O)[O-])cc([N+](=O)[O-])c1` the figure was 121 to 123 °C; with `CCCOc1ccccc1-c1nc2nc(SC)ncc2c(=O)[nH]1`, 179 to 181 °C.
In the case of `Cc1nc2ccc(NCCCN3CCC(OC(c4ccccc4)c4ccccc4)CC3)nn2c1C(=O)O`, the melting point is 101 to 103 °C.
For the compound `Cc1cc2c(=O)c(C(=O)O)cn(-c3cc(N)c(F)cc3F)c2cc1F`, the melting point was over 280 °C.
With `COCc1cc(C(=O)CBr)on1` the figure was 53 to 54 °C; with `COC(=O)C(C)(C)NC(=O)c1cc2c(n(CC3CCCCC3)c1=O)CCCCCC2`, 260 to 263 °C.
`CN(C)S(=O)(=O)c1cccc(S(N)(=O)=O)c1`: the melting point is 101 to 106 °C.
In the case of `Nc1ccccc1NC(=O)c1ccc(CNC(=O)OCc2cccnc2)cc1` it was 159 to 160 °C.
Turning to `C[C@@H](COC(F)(F)C(F)F)[C@](O)(Cn1cncn1)c1ccc(F)cc1F`, the melting point came to 148 °C.
Consider `O=C(O)CCCCCCCCCCCCO`, for which the melting point is 77 to 78 °C.
With `COc1cccc(C23CCN(C)CC2Cc2c([nH]c(C(=O)N4CCCC4)c2C)C3)c1` (stereo not given), the melting point fell in the range of 171 to 173 °C.
`OCc1c[nH]c(=S)n1[C@H]1CCc2cc(Cl)c(Cl)cc2C1` registered a melting point of 247 to 248 °C.

For orientation: melting point means the temperature, or range, at which the solid turns liquid.
